Data as given in paper PMC8691691 (ACS Chemical Neuroscience, 2021).

What was measured:
GlyT2 S481G mutant = target: T1, GlyT2 S481G mutant (Rattus norvegicus, UniProt P58295, S481G); test: [3H]glycine transport by GlyT2 mutant in COS7 cells; assay type: cell-based
T1 construct: expressed in transfected cells; host or cells: COS7
T1 sequence (P58295 1-799 S481G): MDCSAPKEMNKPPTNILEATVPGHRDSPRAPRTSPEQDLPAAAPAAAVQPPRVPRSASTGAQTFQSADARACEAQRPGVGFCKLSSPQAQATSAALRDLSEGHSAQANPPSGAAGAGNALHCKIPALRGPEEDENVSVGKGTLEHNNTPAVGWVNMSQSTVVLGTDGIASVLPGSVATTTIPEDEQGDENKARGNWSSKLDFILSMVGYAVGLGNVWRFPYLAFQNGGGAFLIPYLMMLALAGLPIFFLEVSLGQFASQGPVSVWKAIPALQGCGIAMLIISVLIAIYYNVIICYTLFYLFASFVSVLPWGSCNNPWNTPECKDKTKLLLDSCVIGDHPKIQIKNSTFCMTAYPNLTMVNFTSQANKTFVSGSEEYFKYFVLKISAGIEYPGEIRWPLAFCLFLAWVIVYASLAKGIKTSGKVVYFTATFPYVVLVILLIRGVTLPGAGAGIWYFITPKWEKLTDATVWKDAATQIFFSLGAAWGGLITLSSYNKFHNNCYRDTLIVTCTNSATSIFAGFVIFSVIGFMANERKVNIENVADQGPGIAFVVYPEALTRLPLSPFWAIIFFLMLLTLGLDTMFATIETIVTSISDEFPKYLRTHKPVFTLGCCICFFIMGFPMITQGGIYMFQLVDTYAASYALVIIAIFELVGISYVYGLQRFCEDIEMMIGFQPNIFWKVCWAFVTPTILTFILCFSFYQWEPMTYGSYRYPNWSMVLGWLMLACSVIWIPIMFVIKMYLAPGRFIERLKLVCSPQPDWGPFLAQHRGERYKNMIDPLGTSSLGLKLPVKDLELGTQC

GlyT1 [1] = target: T2, GlyT1 (Rattus norvegicus, UniProt P28572); test: [3H]glycine transport by recombinant GlyT1 expressed in COS7 cells; assay type: cell-based; conditions: 10 μM glycine
T2 construct: expressed in transfected cells; host or cells: COS7
T2 sequence (P28572 1-638): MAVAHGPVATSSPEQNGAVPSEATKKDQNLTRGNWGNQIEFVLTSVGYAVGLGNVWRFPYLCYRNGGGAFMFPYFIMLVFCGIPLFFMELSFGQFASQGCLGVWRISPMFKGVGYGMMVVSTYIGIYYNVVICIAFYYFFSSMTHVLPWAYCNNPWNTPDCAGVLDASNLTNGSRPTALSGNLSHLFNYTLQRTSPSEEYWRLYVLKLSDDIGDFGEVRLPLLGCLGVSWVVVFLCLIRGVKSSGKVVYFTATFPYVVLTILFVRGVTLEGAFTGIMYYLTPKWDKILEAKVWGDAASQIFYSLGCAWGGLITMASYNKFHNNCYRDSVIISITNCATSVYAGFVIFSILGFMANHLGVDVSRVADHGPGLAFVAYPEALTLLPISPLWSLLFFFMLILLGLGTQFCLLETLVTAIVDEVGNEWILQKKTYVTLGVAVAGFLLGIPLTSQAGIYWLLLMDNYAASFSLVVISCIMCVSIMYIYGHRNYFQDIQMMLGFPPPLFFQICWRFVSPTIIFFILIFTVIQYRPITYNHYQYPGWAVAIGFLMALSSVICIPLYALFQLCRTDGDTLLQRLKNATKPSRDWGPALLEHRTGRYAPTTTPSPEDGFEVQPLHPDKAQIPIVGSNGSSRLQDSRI
Protocol: Substitution mutants were generated with the QuikChange II Site-Directed Mutagenesis kit (Agilent Technologies, Santa Clara, CA, USA), using rGlyT2 or rGlyT1 subcloned in pCDNA3.[47] The complete coding region of all of the constructs was sequenced to verify that only the desired mutation had been introduced. […] COS7 cells were grown and transfected using Turbofect Transfection Reagent (Thermo Fisher Scientific, Waltham, MA, USA), following the manufacturer’s protocol (2 μL reagent/μg of DNA). Cells were incubated for 48 h at 37 °C until used.
At the end of the desired time (usually 10 min), reactions were washed and terminated by aspiration. […] A nonlinear curve fitting method was used to obtain IC50 values using Graphpad Prism software, version 6.0, Graphpad, San Diego, CA, USA.

GlyT1 [2] = conditions: neuronal cultures and brain preparations; cited from earlier work
[3] = due to its physiological irreversibility; cited from earlier work

IC50 (GlyT2 S481G mutant; read-out: IC50 (Table S1)) [nM]	IC50, inhibition of glycine transport by GlyT1 (GlyT1 [1])	Compound	effect of mutation on inhibition of glycine transport (GlyT2 S481G mutant; S481G, 1 μM inhibitor, 25 μM glycine)	concentrations at which GlyT1 is inhibited (GlyT1 [2]) [µM]	toxicity in animals [3]
75 ± 8	low μM range	N[C@@H](COC(c1cccc(F)c1)c1ccccc1OCc1ccccc1)C(=O)O (some centres unmarked) [ALX1393]	more reduced inhibition potency for ALX1393 than for ORG25543	0.5 to 1	–
–	–	COc1cc(C(=O)NCC2(N(C)C)CCCC2)cc(OC)c1OCc1ccccc1 [ORG25543, N-[[1-(dimethylamino)cyclopentyl]methyl]-3,5-dimethoxy-4-(phenylmethoxy)benzamide]	–	–	generates toxicity in animals
